Measured values as given in patent publication US20050100998A1 (priority 2000, published 2005).
Entries after “also recorded” stand apart in the source; their conditions may differ.

How the values were obtained:
UMP-CMP kinase [1] = target: T1, UMP-CMP kinase (Homo sapiens, UniProt P30085); experiment: Enzymatic activity assay (NMP phosphorylation, TLC of radiolabelled products); type: biochemical; details: for phosphorylation of the NMP as substrate (phosphate acceptor), in words: lysates of transfected cells vs vector-transfected cells, FIG. 5A; for ability of the NTP to act as phosphate donor (CDP formed), in words: NTP varied
T1 construct: This cDNA codes for a predicted 196 amino-acid protein; expressed in transfected cells; host or cells: HEK 293 or COS-7 cells transiently transfected with pRc/CMV carrying the UMP-CMP kinase cDNA; crude lysate used
T1 sequence (P30085 1-196): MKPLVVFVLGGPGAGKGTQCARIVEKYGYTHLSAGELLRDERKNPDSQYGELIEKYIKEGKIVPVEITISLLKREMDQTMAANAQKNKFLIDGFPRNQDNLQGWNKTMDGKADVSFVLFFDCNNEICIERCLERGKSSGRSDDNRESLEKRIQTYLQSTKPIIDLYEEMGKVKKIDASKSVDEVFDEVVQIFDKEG
Experimental: Tests were conducted on the enzyme produced by the cDNA.
Since many NMP kinases phosphorylate multiple types of NMPs with varying relative kinetics, a variety of NMPs were tested as substrates.
The most preferred phosphate donor of the kinase was next investigated. […] The amount of CDP formed indicates the ability of each NTP to act as a phosphate donor.
Cell lysates (25 μg total protein) prepared as described for Western blot were added to the following reaction mixture: 83 mM tris-HCl (pH 8.0), 3.3 mM MgCl2, 0.17 M KCl, 6.7 mM NTP, 6.7 mM NMP and 0.1 μCi of the indicated [^3H]-NU (60.4 mCi/mmol). The reaction was carried out at 37° C. for 6 min and terminated with an equal volume of 2 M formic acid. Unlabeled NDP was added (6.7 mM final concentration) and the reactions were dried under a steam of nitrogen. The products were resuspended in distilled H2O and analyzed by thin layer chromatography.
Chromatography was performed by ascending development (dry start) in closed plexiglass chambers at room temperature using 0.25 M KH2PO4 (pH 3.4) as described previously. […] The products were visualized under UV light and identified by co-migration with authentic nucleotides. Spots corresponding to different nucleotides were scraped from the plate and radioactive reaction products were quantified with a multi-purpose liquid scintillation counter.

UMP-CMP kinase [2] = target: T1, UMP-CMP kinase; details: Mol. Pharmacol. 56:562-569 (1999), ATP as donor, 30 min; cited from earlier work
HL-60 cells = experiment: RT-PCR of UMP-CMP kinase expression and phenotype in differentiating HL-60 cells; type: cell-based, human; details: HL-60 cells treated with differentiating agent
Excerpt: The possibility that UMP-CMP kinase was developmentally regulated as monocytes proceed toward the macrophage phenotype was also investigated. To assess this, human monocytes were isolated and cultered for 10 days as they differentiated into macrophages. RNA was isolated on the day of cell plating and then throughout the culture period. […] These cells are monocytic, but differentiate into macrophage-like cells in the presence of phorbol-12-myristate-13-acetate (PMA) (Murao et al., 1983; Rovera et al., 1979), or into neutrophils in the presence of DMSO (Collins et al., 1975). […] These changes included adhesion and altered cell shape. No change in UMP-CMP kinase expression was detected, however, when assayed by RT-PCR. […] Similarly, no change was detected after DMSO treatment.
Because the cDNA had been cloned from a macrophage library, it was also considered possible that UMP-CMP kinase expression might be developmentally regulated as monocytes proceed toward the macrophage phenotype. To evaluate this possibility, Human monocytes were isolated and cultured for 10 days as they differentiated into macrophages. […] In order to confirm this conclusion, HL-60 cells were employed. […] Similarly, no change in this message was detected after DMSO treatment (data not shown).

[3] = varying Mg^2+ concentrations, FIG. 4

## Nc1ncnc2c1ncn2[C@@H]1O[C@H](COP(=O)(O)O)[C@@H](O)[C@H]1O [AMP]
UMP-CMP kinase [1]
  phosphorylation of the NMP as substrate (phosphate acceptor), in words: only slightly

## Nc1ncnc2c1ncn2[C@@H]1O[C@H](COP(=O)(O)OP(=O)(O)OP(=O)(O)O)[C@@H](O)[C@H]1O [ATP]
UMP-CMP kinase [1]; CMP as substrate, FIG. 5B
  ability of the NTP to act as phosphate donor (CDP formed), in words: preferred as phosphate donors over CTP and GTP
UMP-CMP kinase [1]
  phosphorylation of the NMP as substrate (phosphate acceptor), in words: Modest

## Nc1ccn([C@@H]2O[C@H](COP(=O)(O)O)[C@@H](O)[C@H]2O)c(=O)n1 [CMP, Cytidine Monophosphate]
UMP-CMP kinase [1]
  reaction efficiency in the presence of CMP relative to UMP: three-fold greater reaction efficiency
  phosphorylation of the NMP as substrate (phosphate acceptor), in words: prefers
UMP-CMP kinase [2]
  phosphorylation by the kinase as reported by Van Rompay et al.: efficiently phosphorylated

## Nc1ccn([C@@H]2O[C@H](COP(=O)(O)O)[C@@H](O)[C@@H]2O)c(=O)n1 [CTP]
UMP-CMP kinase [1]; CMP as substrate, FIG. 5B
  reaction efficiency as phosphate donor relative to ATP or UTP: half and approximately half

## C[S+](C)[O-] [DMSO]
HL-60 cells
  change in UMP-CMP kinase expression by RT-PCR: no change

## Nc1nc2c(ncn2[C@@H]2O[C@H](COP(=O)(O)O)[C@@H](O)[C@H]2O)c(=O)[nH]1 [GMP]
UMP-CMP kinase [1]
  phosphorylation of the NMP as substrate (phosphate acceptor), in words: unable to phosphorylate

## [Mg+2] [Mg^2+]
UMP-CMP kinase [1]; [3]
  Mg^2+ concentration giving maximal UMP-CMP kinase activity: 3 mM
  effect of Mg^2+ on UMP-CMP kinase activity, in words: increases UMP-CMP kinase activity in a concentration-dependent manner

## CCCCCCCCCCCCCC(=O)O[C@@H]1[C@@H](C)[C@@]2(O)[C@@H](C=C(CO)C[C@]3(O)C(=O)C(C)=C[C@@H]23)[C@@H]2C(C)(C)[C@]12OC(C)=O [PMA, phorbol-12-myristate-13-acetate]
HL-60 cells
  change in UMP-CMP kinase expression by RT-PCR: No change
  phenotypic change of HL-60 cells: altered the HL-60 cell phenotype from a suspension cell to an adherent cell; also recorded: induced phenotypic changes

## O=c1ccn([C@@H]2O[C@H](COP(=O)(O)O)[C@@H](O)[C@H]2O)c(=O)[nH]1 [UMP]
UMP-CMP kinase [1]
  phosphorylation of the NMP as substrate (phosphate acceptor), in words: prefers
UMP-CMP kinase [2]
  phosphorylation by the kinase as reported by Van Rompay et al.: efficiently phosphorylated

## O=c1ccn([C@@H]2O[C@H](COP(=O)(O)OP(=O)(O)OP(=O)(O)O)[C@@H](O)[C@H]2O)c(=O)[nH]1 [UTP]
UMP-CMP kinase [1]; CMP as substrate, FIG. 5B
  ability of the NTP to act as phosphate donor (CDP formed), in words: preferred as phosphate donors over CTP and GTP

## Nc1ccn([C@H]2C[C@H](O)[C@@H](COP(=O)(O)O)O2)c(=O)n1 [dCMP]
UMP-CMP kinase [2]
  phosphorylation by the kinase as reported by Van Rompay et al.: efficiently phosphorylated
